The source of these data is ChEMBL document CHEMBL3769397, “A new GLP-1 analogue with prolonged glucose-lowering activity in vivo via backbone-based modification at the N-terminus” (Bioorg Med Chem, 2016).

Some results are limits rather than exact numbers.

Data set [1] addresses T1, DPP4 (dipeptidyl peptidase 4) (Homo sapiens, UniProt P27487). Briefly: Half life of compound assessed as recombinant human DPP4-mediated cleavage by RP-HPLC analysis. Format: ADME.
Data set [2] deals with Mus musculus. Nature of the data set: Reduction in blood glucose in Kunming mouse assessed as blood glucose level at 25 nmol/kg, ip at administered 0 mins followed by first glucose challenge at 40 mins followed by second glucose challenge at 310 mins and measured at 430 mins by glucose tolerance test (reference value: 4.9 to 6.3 mmol/L). The class given is functional.
Data set [3] has as its target T1, DPP4 (dipeptidyl peptidase 4). Nature of the data set: Drug degradation assessed as recombinant human DPP4-mediated cleavage by measuring compound remaining after 96 hrs by RP-HPLC analysis. The class given is ADME. As to conditions: read-out: Stability.
Data set [4] shares this target. Briefly: Drug degradation assessed as recombinant human DPP4-mediated cleavage by measuring compound remaining after 24 hrs by RP-HPLC analysis. Format: ADME. The note with it: read-out: Stability.
The subject of data set [5] is Mus musculus. Nature of the data set: Reduction in blood glucose in Kunming mouse assessed as blood glucose level at 25 nmol/kg, ip at administered 0 mins followed by first glucose challenge at 40 mins followed by second glucose challenge at 310 mins and measured at 325 mins by glucose tolerance test (reference value: 4.9 to 6.3 mmol/L). The class given is functional.

In data set [6] the target is T1, DPP4 (dipeptidyl peptidase 4). Nature of the data set: Drug degradation assessed as recombinant human DPP4-mediated cleavage by measuring compound remaining after 72 hrs by RP-HPLC analysis. Format: ADME. As to conditions: read-out: Stability.
In data set [7] the test system is Mus musculus. Briefly: Reduction in blood glucose in Kunming mouse assessed as blood glucose level at 25 nmol/kg, ip at administered 0 mins followed by first glucose challenge at 40 mins followed by second glucose challenge at 310 mins and measured at 310 mins by glucose tolerance test (reference value: 4.9 to 6.3 mmol/L). The class given is functional.
The test system of data set [8] is Mus musculus. Nature of the data set: Reduction in blood glucose in Kunming mouse assessed as blood glucose peak value at 25 nmol/kg, ip at administered 0 mins followed by first glucose challenge at 40 mins measured at 80 mins by glucose tolerance test relative to control. The class given is functional. More on the design: scale not given: the % may be the effect or the level left.

Data set [9] deals with T1, DPP4 (dipeptidyl peptidase 4). Briefly: Drug degradation assessed as recombinant human DPP4-mediated cleavage by measuring compound remaining after 48 hrs by RP-HPLC analysis. Format: ADME. The note with it: read-out: Stability.
In data set [10] the test system is Mus musculus. Briefly: Reduction in blood glucose in Kunming mouse assessed as blood glucose peak value at 25 nmol/kg, ip at administered 0 mins followed by first glucose challenge at 40 mins followed by second glucose challenge at 310 mins and measured at 325 mins by glucose tolerance test relative to control. The class given is functional. Details: scale not given: the % may be the effect or the level left.

Data set [11] concerns Mus musculus. Briefly: Reduction in blood glucose in Kunming mouse assessed as blood glucose level at 25 nmol/kg, ip at administered 0 mins followed by first glucose challenge at 40 mins followed by second glucose challenge at 310 mins and measured at 160 mins by glucose tolerance test (reference value: 4.9 to 6.3 mmol/L). Format: functional.
Data set [12] concerns Mus musculus. Briefly: Reduction in blood glucose in Kunming mouse assessed as blood glucose AUC at 25 nmol/kg, ip at administered 0 mins followed by first glucose challenge at 40 mins measured at 80 mins by glucose tolerance test relative to control. Details: scale not given: the % may be the effect or the level left. Format: functional.
Data set [13] has as its system Mus musculus. Briefly: Reduction in blood glucose in Kunming mouse assessed as blood glucose level at 25 nmol/kg, ip at administered 0 mins followed by first glucose challenge at 40 mins followed by second glucose challenge at 310 mins and measured at 385 mins by glucose tolerance test (reference value: 4.9 to 6.3 mmol/L). Format: functional.
A short description of data set [14]: Retention time of compound over 30 mins by HPLC analysis. Format: physicochemical. As to conditions: 0.5 h.
Data set [15] deals with T1, DPP4 (dipeptidyl peptidase 4). Nature of the data set: Drug degradation assessed as recombinant human DPP4-mediated cleavage by measuring compound remaining after 12 hrs by RP-HPLC analysis. Format: ADME. As to conditions: read-out: Stability.
Data set [16] concerns Mus musculus. Briefly: Reduction in blood glucose in Kunming mouse assessed as blood glucose AUC at 25 nmol/kg, ip at administered 0 mins followed by first glucose challenge at 40 mins followed by second glucose challenge at 310 mins and measured at 325 mins by glucose tolerance test relative to control. More on the design: scale not given: the % may be the effect or the level left. Format: functional.

The test system of data set [17] is Mus musculus. Nature of the data set: Reduction in blood glucose in Kunming mouse assessed as blood glucose level at 25 nmol/kg, ip at administered 0 mins followed by first glucose challenge at 40 mins followed by second glucose challenge at 310 mins and measured at 115 mins by glucose tolerance test (reference value: 4.9 to 6.3 mmol/L). Format: functional.
The target in data set [18] is Glucagon-like peptide 1 receptor (Homo sapiens, UniProt P43220). Briefly: Activation of human GLP1R expressed in HEK293 cells preincubated for 30 mins followed by addition of cAMP-d2 conjugate/cryptate conjugate incubated for 60 mins by fluorescence analysis. Format: functional, cell-based.
Data set [19] has as its system Mus musculus. Nature of the data set: Reduction in blood glucose in Kunming mouse assessed as blood glucose level at 25 nmol/kg, ip at administered 0 mins followed by first glucose challenge at 40 mins followed by second glucose challenge at 310 mins and measured at 350 mins by glucose tolerance test (reference value: 4.9 to 6.3 mmol/L). The class given is functional.

Data set [20] relates to Mus musculus. Nature of the data set: Reduction in blood glucose in Kunming mouse assessed as blood glucose level at 25 nmol/kg, ip at administered 0 mins followed by first glucose challenge at 40 mins followed by second glucose challenge at 310 mins and measured at 40 mins by glucose tolerance test (reference value: 4.9 to 6.3 mmol/L). The class given is functional.
Data set [21] has as its system Mus musculus. Briefly: Reduction in blood glucose in Kunming mouse assessed as blood glucose level at 25 nmol/kg, ip at administered 0 mins followed by first glucose challenge at 40 mins followed by second glucose challenge at 310 mins and measured at 80 mins by glucose tolerance test (reference value: 4.9 to 6.3 mmol/L). Format: functional.
For data set [22], the system named is Mus musculus. Nature of the data set: Reduction in blood glucose in Kunming mouse assessed as blood glucose level at 25 nmol/kg, ip at administered 0 mins followed by first glucose challenge at 40 mins followed by second glucose challenge at 310 mins and measured at 55 mins by glucose tolerance test (reference value: 4.9 to 6.3 mmol/L). Format: functional.

T1 sequence (P27487 whole entry): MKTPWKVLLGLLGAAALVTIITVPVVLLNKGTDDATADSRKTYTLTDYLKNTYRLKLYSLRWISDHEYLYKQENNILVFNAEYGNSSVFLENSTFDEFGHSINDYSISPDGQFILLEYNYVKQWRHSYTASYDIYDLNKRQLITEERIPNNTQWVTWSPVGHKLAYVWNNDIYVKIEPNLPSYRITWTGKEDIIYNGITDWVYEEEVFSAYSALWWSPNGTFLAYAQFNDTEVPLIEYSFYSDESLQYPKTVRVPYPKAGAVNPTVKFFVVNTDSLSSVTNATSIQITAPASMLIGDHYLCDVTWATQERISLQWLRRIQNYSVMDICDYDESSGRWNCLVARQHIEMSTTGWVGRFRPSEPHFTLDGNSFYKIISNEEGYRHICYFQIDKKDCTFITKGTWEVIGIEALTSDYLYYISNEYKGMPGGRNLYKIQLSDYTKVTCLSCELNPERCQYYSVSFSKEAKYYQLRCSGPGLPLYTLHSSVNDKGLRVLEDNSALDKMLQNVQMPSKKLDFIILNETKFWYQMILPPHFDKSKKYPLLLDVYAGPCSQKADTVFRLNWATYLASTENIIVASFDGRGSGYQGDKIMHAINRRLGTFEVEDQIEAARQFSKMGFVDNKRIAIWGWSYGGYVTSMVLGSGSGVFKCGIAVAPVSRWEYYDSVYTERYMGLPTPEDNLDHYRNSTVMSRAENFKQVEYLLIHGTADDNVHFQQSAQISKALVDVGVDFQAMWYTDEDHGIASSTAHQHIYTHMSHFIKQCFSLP
Chain of Glucagon-like peptide 1 receptor (P43220 whole entry): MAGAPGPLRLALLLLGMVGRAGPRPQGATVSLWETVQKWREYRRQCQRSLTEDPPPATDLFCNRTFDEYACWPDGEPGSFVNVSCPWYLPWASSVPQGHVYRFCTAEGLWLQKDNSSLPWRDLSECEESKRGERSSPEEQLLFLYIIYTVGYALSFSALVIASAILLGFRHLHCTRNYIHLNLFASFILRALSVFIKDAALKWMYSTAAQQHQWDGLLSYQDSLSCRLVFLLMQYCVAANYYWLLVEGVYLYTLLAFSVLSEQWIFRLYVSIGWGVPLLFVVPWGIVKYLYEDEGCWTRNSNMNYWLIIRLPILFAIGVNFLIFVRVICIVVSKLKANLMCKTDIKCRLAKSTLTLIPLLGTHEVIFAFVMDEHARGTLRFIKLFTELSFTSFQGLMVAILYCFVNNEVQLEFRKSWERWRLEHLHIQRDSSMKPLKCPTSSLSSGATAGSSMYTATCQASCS

Consider `CC[C@H](C)[C@H](NC(=O)[C@H](Cc1ccccc1)NC(=O)[C@H](CCC(=O)O)NC(=O)[C@H](CCCCN)NC(=O)[C@H](C)NC(=O)[C@H](C)NC(=O)[C@H](CCC(N)=O)NC(=O)CNC(=O)[C@H](CCC(=O)O)NC(=O)[C@H](CC(C)C)NC(=O)[C@H](Cc1ccc(O)cc1)NC(=O)[C@H](CO)NC(=O)[C@H](CO)NC(=O)[C@@H](NC(=O)[C@H](CC(=O)O)NC(=O)[C@H](CO)NC(=O)[C@@H](NC(=O)[C@H](Cc1ccccc1)NC(=O)[C@@H](NC(=O)CNC(=O)[C@H](CCC(=O)O)NC(=O)CCNC(=O)[C@@H](N)Cc1cnc[nH]1)[C@@H](C)O)[C@@H](C)O)C(C)C)C(=O)N[C@@H](C)C(=O)N[C@@H](Cc1c[nH]c2ccccc12)C(=O)N[C@@H](CC(C)C)C(=O)N[C@H](C(=O)N[C@@H](CCCCN)C(=O)NCC(=O)N[C@@H](CCCNC(=N)N)C(N)=O)C(C)C`, for which the half-life (commonly the time in which the quantity being followed falls by half) in data set [1] is greater than 96 h. For the same compound, the Activity in data set [2] came out at 6.8 mmol/L; in [5], 19.6 mmol/L; in [7], 6.3 mmol/L; in [8], 61%; in data set [10], 84%; in [11] it was 7.8 mmol/L. For the same compound, the Activity in [12] was found to be 63%; in data set [13], 9.8 mmol/L; in data set [16], 81%; in data set [17], 11.8 mmol/L; in [19], 16.8 mmol/L; in [20], 6.5 mmol/L. Also, the Activity was found to be 16 mmol/L in data set [21] and 12.8 mmol/L in data set [22]. In [3], the remaining at 96 h was determined as 100%. Further, the remaining at 24 h in data set [4] is 100%. For the same compound, the remaining at 72 h in data set [6] came to 100%. Besides, in data set [9], the remaining at 48 h amounted to 100%. The Retention_time in data set [14] stood at 13.751 min. In addition, in [15], the remaining at 12 h turned out to be 100%. For the same compound, it took 0.0329 nM to reach a half-maximal effect in data set [18] (EC50).

`CC[C@H](C)[C@H](NC(=O)[C@H](Cc1ccccc1)NC(=O)[C@H](CCC(=O)O)NC(=O)[C@H](CCCCN)NC(=O)[C@H](C)NC(=O)[C@H](C)NC(=O)[C@H](CCC(N)=O)NC(=O)CNC(=O)[C@H](CCC(=O)O)NC(=O)[C@H](CC(C)C)NC(=O)[C@H](Cc1ccc(O)cc1)NC(=O)[C@H](CO)NC(=O)[C@H](CO)NC(=O)[C@@H](NC(=O)[C@H](CC(=O)O)NC(=O)[C@H](CO)NC(=O)[C@@H](NC(=O)[C@H](Cc1ccccc1)NC(=O)[C@@H](NC(=O)CNC(=O)[C@H](CCC(=O)O)NC(=O)[C@H]1CCC[C@@H]1NC(=O)[C@@H](N)Cc1cnc[nH]1)[C@@H](C)O)[C@@H](C)O)C(C)C)C(=O)N[C@@H](C)C(=O)N[C@@H](Cc1c[nH]c2ccccc12)C(=O)N[C@@H](CC(C)C)C(=O)N[C@H](C(=O)N[C@@H](CCCCN)C(=O)NCC(=O)N[C@@H](CCCNC(=N)N)C(N)=O)C(C)C`: the half-life in data set [1] is greater than 96 h. The Activity is reported as 8.7 mmol/L in data set [2]; 22.8 mmol/L in [5]; 6.2 mmol/L in [7]; 9.1 mmol/L in data set [11]; 11.4 mmol/L in data set [13]; 11.5 mmol/L in [17]. Besides, the Activity in data set [19] was found to be 19.2 mmol/L; in [20], 7 mmol/L; in data set [21], 15.9 mmol/L; in data set [22], 14.8 mmol/L. Further, the remaining at 96 h in [3] is 100%. In addition, in data set [4], the remaining at 24 h is 100%. Besides, the remaining at 72 h in data set [6] worked out at 100%. Moreover, the remaining at 48 h in [9] stood at 100%. Besides, the Retention_time in data set [14] amounted to 13.997 min. The remaining at 12 h in [15] amounted to 100%. The response in [18] was half-maximal at 0.0766 nM (EC50).

As to `CC[C@H](C)[C@H](NC(=O)[C@H](Cc1ccccc1)NC(=O)[C@H](CCC(=O)O)NC(=O)[C@H](CCCCN)NC(=O)[C@H](C)NC(=O)[C@H](C)NC(=O)[C@H](CCC(N)=O)NC(=O)CNC(=O)[C@H](CCC(=O)O)NC(=O)[C@H](CC(C)C)NC(=O)[C@H](Cc1ccc(O)cc1)NC(=O)[C@H](CO)NC(=O)[C@H](CO)NC(=O)[C@@H](NC(=O)[C@H](CC(=O)O)NC(=O)[C@H](CO)NC(=O)[C@@H](NC(=O)[C@H](Cc1ccccc1)NC(=O)[C@@H](NC(=O)CNC(=O)[C@H](CCC(=O)O)NC(=O)C1(NC(=O)[C@@H](N)Cc2cnc[nH]2)CC1)[C@@H](C)O)[C@@H](C)O)C(C)C)C(=O)N[C@@H](C)C(=O)N[C@@H](Cc1c[nH]c2ccccc12)C(=O)N[C@@H](CC(C)C)C(=O)N[C@H](C(=O)N[C@@H](CCCCN)C(=O)NCC(=O)N[C@@H](CCCNC(=N)N)C(N)=O)C(C)C`, the Activity in [2] was found to be 7.1 mmol/L; in data set [5] it was 21.2 mmol/L; in data set [7], 5.9 mmol/L; in data set [11], 6.5 mmol/L; in [13], 10.8 mmol/L; in data set [17], 13.8 mmol/L. Further, the Activity in [19] is given as 19.8 mmol/L; in data set [20], 7.5 mmol/L; in data set [21], 17.2 mmol/L; in data set [22] it was 12.9 mmol/L.
